In ChEMBL document CHEMBL2413061, “Synthesis and cytotoxic activity evaluation of 2,3-thiazolidin-4-one derivatives on human breast cancer cell lines” (Bioorg Med Chem Lett, 2013):
pIC50: −log10 of the molar value. The source made the active and inactive calls. No cut-off for these calls is given here.

Key:
[1] = test system: MCF7; experiment: Cytotoxicity against human estrogen receptor positive MCF7 cells after 72 hrs by MTT assay; format: functional, cell-based; details: for pIC50: MCF7, 72 h
[2] = test system: SK-BR-3; experiment: Cytotoxicity against human estrogen receptor negative SKBR3 cells after 72 hrs by MTT assay; format: functional, cell-based; details: SK-BR-3, 72 h
[3] = test system: SK-BR-3; experiment: Cytotoxicity against human estrogen receptor negative SKBR3 cells at 10 uM after 72 hrs by MTT assay; format: functional, cell-based
[4] = test system: SK-BR-3; experiment: Cytotoxicity against human estrogen receptor negative SKBR3 cells at 0.1 to 50 uM after 72 hrs by MTT assay; format: functional, cell-based
[5] = test system: NIH3T3; experiment: Cytotoxicity against mouse 3T3 cells assessed as cell viability at 0.1 to 10 uM after 72 hrs by MTT assay; format: cell-based; details: nih3t3, 72 h
[6] = test system: MCF7; experiment: Cytotoxicity against human estrogen receptor positive MCF7 cells at 1 to 10 uM after 72 hrs by MTT assay; format: functional, cell-based
[7] = test system: MCF7; experiment: Cytotoxicity against human estrogen receptor positive MCF7 cells at 50 uM after 72 hrs by MTT assay; format: functional, cell-based
[8] = test system: MCF7; experiment: Cytotoxicity against human estrogen receptor positive MCF7 cells at 1 uM after 72 hrs by MTT assay; format: functional, cell-based
[9] = test system: MCF7; experiment: Cytotoxicity against human estrogen receptor positive MCF7 cells at 0.1 uM after 72 hrs by MTT assay; format: functional, cell-based

## Oc1ccc(/C=C/c2cc(O)cc(O)c2)cc1 [RESVERATROL]
[1]
  pIC50: 4.55
[2]
  pIC50: 4.38

## O=C1CSC(c2ccc(Cl)cc2)N1c1ccc(O)cc1 (stereo unspecified)
[3]
  inhibition: Active
[4]
  inhibition: inactive
[5]
  Activity: Non-toxic
[1]
  Activity: Dose-dependent effect
  pIC50: 5.30
[6]
  Activity: Active

## COc1ccc(C2SCC(=O)N2c2ccc(O)cc2)cc1OC (stereo unspecified)
[3]
  inhibition: Active
[4]
  inhibition: inactive
[5]
  Activity: Non-toxic
[1]
  Activity: Dose-dependent effect
  pIC50: 5.59
[6]
  Activity: Active

## O=C1CSC(c2ccc(O)c(O)c2)N1c1ccc(O)cc1 (stereo unspecified)
[7]
  inhibition: inactive
[8]
  inhibition: Active
[4]
  inhibition: inactive
[5]
  Activity: Non-toxic

## COc1cc(C2SCC(=O)N2c2ccc(O)cc2)cc(OC)c1OC (stereo unspecified)
[3]
  inhibition: Active
[4]
  inhibition: inactive
[5]
  Activity: Non-toxic
[1]
  Activity: Dose-dependent effect

## COc1ccc(C2SCC(=O)N2c2ccc(O)cc2)c(OC)c1 (stereo unspecified)
[4]
  inhibition: inactive
[5]
  Activity: Non-toxic
[1]
  Activity: Dose-dependent effect

## O=C1CSC(c2ccc(O)cc2O)N1c1ccc(O)cc1 (stereo unspecified)
[4]
  inhibition: inactive
[5]
  Activity: Non-toxic

## O=C1CSC(c2cc(O)cc(O)c2)N1c1ccc(O)cc1 (stereo unspecified)
[3]
  inhibition: Active
[4]
  inhibition: inactive
[5]
  Activity: Non-toxic
[1]
  Activity: Dose-dependent effect

## COc1cc(C2SCC(=O)N2c2ccc(C)cc2)cc(OC)c1OC (stereo unspecified)
[5]
  Activity: Non-toxic
[2]
  pIC50: 6.64

## O=C1CSC(c2ccccc2)N1c1ccccc1 (stereo unspecified)
[5]
  Activity: Non-toxic
[1]
  Activity: Dose-dependent effect
[2]
  pIC50: 6.09

## Cc1ccc(N2C(=O)CSC2c2cccc3ccccc23)cc1 (stereo unspecified)
[7]
  inhibition: inactive
[5]
  Activity: Non-toxic
[9]
  inhibition: Active
[2]
  pIC50: 6.60

## Cc1ccc(N2C(=O)CSC2c2ccc(Cl)cc2)cc1 (stereo unspecified)
[3]
  inhibition: Active
[4]
  inhibition: inactive
[5]
  Activity: Non-toxic
[1]
  Activity: Dose-dependent effect

## O=C1CSC(c2ccc(O)cc2)N1c1ccc(O)cc1 (stereo unspecified)
[4]
  inhibition: inactive
[5]
  Activity: Non-toxic
